Measurements published in patent publication US11207301B2, “Sphingosine 1 phosphate receptor agonists for neuroprotection” (RECEPTOS LLC, priority 2017, dated 2021).

Columns and labels:
[1] = target: T1, Recombinant human MAO-B (Homo sapiens, UniProt P27338); assay: MAO-B inhibition, conversion of kynuramine to 4-hydroxyquinoline; assay type: biochemical
T1 construct: purchased Sigma-Aldrich M7441; host or cells: baculovirus infected insect cells
T1 sequence (P27338 1-520): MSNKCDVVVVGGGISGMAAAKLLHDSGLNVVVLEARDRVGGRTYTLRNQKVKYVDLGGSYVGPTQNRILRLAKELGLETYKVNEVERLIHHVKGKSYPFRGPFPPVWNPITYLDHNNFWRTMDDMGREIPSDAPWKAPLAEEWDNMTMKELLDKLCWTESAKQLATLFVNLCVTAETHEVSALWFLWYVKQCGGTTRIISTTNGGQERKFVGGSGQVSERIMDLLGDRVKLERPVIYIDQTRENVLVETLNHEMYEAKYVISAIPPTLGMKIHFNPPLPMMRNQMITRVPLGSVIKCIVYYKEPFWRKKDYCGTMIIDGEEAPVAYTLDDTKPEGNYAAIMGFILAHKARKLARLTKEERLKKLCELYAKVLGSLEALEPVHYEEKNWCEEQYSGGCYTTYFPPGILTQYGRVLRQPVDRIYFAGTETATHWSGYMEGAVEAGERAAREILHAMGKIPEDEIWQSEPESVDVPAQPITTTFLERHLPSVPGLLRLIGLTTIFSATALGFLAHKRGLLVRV
Method: The effect of a S1P receptoragonist on MAO-B activity can be assessed by measuring the inhibition of conversion of substrate kynuramine to 4-hydroxyquinoline as described in Example 4.
Compound 1 and Compound 2-S were evaluated for their ability to inhibit MAO-A and MAO-B. Inhibition of the conversion of kynuramine, a substrate for MAO-A and MAO-B, to 4-hydroxyquinoline was used to assess the inhibitory potential of Compound 1 and Compound 2-S. Recombinant human MAO-A (product number M7316) and MAO-B (product number M7441) expressed in baculovirus infected insect cells were obtained from Sigma-Aldrich, Saint Louis, Mo. USA were used as a source of purified MAOs.
Recombinant MAO-A (0.01 mg/mL, final concentrations) and MAO-B (0.02 mg/mL, final concentration) were diluted to desired concentrations in 100 mM potassium phosphate buffer (pH 7.4) containing 5 mM MgCl2. The diluted protein fractions were preincubated with various concentrations of each test compound at 37° C. for 2 min. The concentrations used were 100, 33, 10, 3.3, 1.0, 0.33 μM and acetonitrile/DMSO as vehicle control for MAO-A and 1.0, 0.3, 0.1, 0.03, 0.01, 0.003 μM and acetonitrile/DMSO as vehicle control for MAO-B. The reaction was started by addition of kynuramine to the incubation mixture. The final concentration of kynuramine was 40 μM for MAO-A and 25 μM for MAO-B. The total incubation volume was 0.250 mL. This concentration was selected to be close to the Km values of MAO-A (Km 42 μM) and MAO-B (Km 26 μM). After 10 min of incubation, aliquots (100 μL) of the reaction mixture were taken and added to 200 μL acetonitrile containing 0.5 μM IS (acetaminophen). The reaction product, 4-hydroxyquinoline was analyzed by LC-MS/MS as described below.
MS characterization and detection of kynuramine and 4-hydroxyquinoline was performed using ABI 4000 Sciex QTrap mass spectrometer utilizing a Turbo Spray. The mass spectrometer was controlled by Analyst v1.6.2. The ESI was operated in a positive ion mode and the experimental parameters were set as follows: ion spray voltage, 2000; source temperature, 550° C.; curtain gas, 20; collision gas, medium ion source gas 1, 55; ion source gas 2, 50. […]
The gradient system was used to separate the analytes with a flow rate of 0.5 ml/min using mobile phase A, water containing 0.1% formic acid and mobile phase B, acetonitrile containing 0.1% formic acid. […] The analytes were monitored using multiple reaction monitoring and the ion transitions (Q1/Q3) were as follows: 4-hydroxyquinoline 146/104 (collision energy, CE was 27; declustering potential, DP, 50, and IS (acetaminophen), 152/110 (collision energy, CE was 27; declustering potential, DP, 50). All data were analyzed using AB Sciex Analyst v1.6.2 software.

[2] = tested on: cuprizone-induced mouse model of demyelination; assay: Cuprizone-induced mouse model of demyelination / neuroprotection; assay type: in vivo, C57BL/6 mice
Text: The effect of a S1P receptor agonist on spinal cord axial demyelination or reduction in axonal breaks can be assessed by measuring concentration of neurofilament light chain (NfL) in the plasma. NfL is released to the plasma following axonal injury and degeneration. Histological examination of axons with antineurofilament H non-phosphorylated mouse antibody SMI-32 can also be used to assess axonal demyelination or breaks. NfH is phosphorylated in healthy axons and unphosphorylated in damaged axons. In addition, the effects of ozanimod on the CNS were examined in vivo using the cuprizone-induced mouse model of demyelination and in vitro in primary rodent astrocytes. Efficacy of ozanimod or compound (2-R) was examined in the cuprizone-induced mouse model of neuroprotection. C57BL/6 mice were treated with cuprizone (0.3% weight/weight orally) and rapamycin (10 mg/kg intraperitoneally daily) to demyelinate axons in the brain and concurrently treated with ozanimod (0.1, 0.3, or 1 mg/kg) or compound (2-S) (1 mg/kg) by daily oral gavage to investigate its neuroprotective activity. Neuroprotection was assessed through examination of axonal pathology in the corpus callosum using SMI-32 (antineurofilament H non-phosphorylated mouse monoclonal antibody) staining, functional assessment through kinematic gait analysis and the plasma biomarker neurofilament light chain (NfL). Further, direct activity of ozanimod was examined in resting and activated primary rodent astrocytes in vitro.

| SMILES | MAO-B inhibition (in words) [1] | IC50 ([1]; kynuramine 25 μM, 10 min incubation) [nM] | overall kinematic gait score ([2]; 0.1, 0.3, or 1 mg/kg vs vehicle (FIG. 3)) | kinematic gait ([2]; cuprizone-induced demyelinated mice vs vehicle, 1 mg/kg (FIG. 2)) | neuroprotection, reduction in swollen and transected axons ([2]; cuprizone-induced mouse model) |
| --- | --- | --- | --- | --- | --- |
| CC(C)Oc1ccc(-c2nc(-c3cccc4c3CCC4=O)no2)cc1C#N [Compound 1, 2-isopropoxy-5-(3-(1-oxo-2,3-dihydro-1H-inden-4-yl)-1,2,4-oxadiazol-5-yl)benzonitrile] | potent inhibition | 6.6 | – | – | – |
| CC(C)Oc1ccc(-c2nc(-c3cccc4c3CC[C@@H]4NCCO)no2)cc1C#N [Ozanimod] | – | – | significantly improved overall kinematic gait score | improved kinematic gait | neuroprotective |
